In patent publication US6884418B1, “Use of ligand-mimicking agents and anti-neoplastic drugs in cancer therapy” (Berlex Laboratories, Inc., priority 1989, dated 2005):

Assays:
SKBR3 cells [1] = assay: MTT assay, SKBR3 cells; assay type: cell-based, human
Description: The MTT assay is generally used to assess cellular viability as a function of mitochondrial activity. The assay was used to examine effects of cisplatin with and without the c-erbB-2 monoclonal antibodies and was carried out as follows:
MTT was added for 4 hours and the crystals dissolved with isopropanol/0.04N HCI/0.3% SDS.

SKBR3 cells [2] = assay: Soft agar clonogenic assay, SKBR3; assay type: cell-based, human; details: 10 ng/ml cisplatin alone
Description: The effects of TAb 250 alone and in combination with cisplatin (CDDP) on growth of human tumor cells in soft agar was assessed. SKOV3 (6,000 cells per ml) or SKBR3 (12,000 cells per ml) were incubated in assay medium (DMEM:F12, University of California at San Francisco Cell Culture Facility), 10% dialyzed FBS 0.1 mM nonessential amino acids in solution obtained from Gibco, 1 mM sodium pyruvate and 10 mM HEPES) for 30 minutes at 37° C. with 1 or 10 μg/ml TAb 250. CDDP at concentrations of either 10 ng/ml for SKBR3 cells and 100 ng/ml for SKOV3 cells was then added and the incubation continued for 1.5 hours at 37° C. An equal volume of assay medium containing 0.8% Sea Plaque agarose and appropriate concentrations of TAb 250 and CDDP were combined with the cell mixture. Triplicate 1 ml aliquots were dispensed onto base layers of 0.8% agarose in assay medium containing the appropriate amounts of TAb 250, CDDP or both, in 35 mm dishes. After 14 days at 37° C./5% CO2 in a humidified chamber, viable colonies were stained for 24 hours with Nitro Blue tetrazolium dye (Sigma, 500 μg in 1 ml PBS). Stained colonies greater than 60 μ were scored positive using a FAS III Image Analysis System (Bausch and Lomb, Rochester, N.Y.). The data are expressed as a percentage of untreated control colonies formed. In control dishes, SKOV3 and SKBR3 cells formed 859+/−16 and 1107+/−72 colonies, respectively. […]

For `N[C@@H](Cc1ccc(N(CCCl)CCCl)cc1)C(=O)O` [melphalan, 4-[bis(2-chloroethyl)amino] L-phenylalanine], the proliferation (SKBR3 cells [1]; 20 μg of melphalan alone) was 70 % of control.

In the case of `N.N.[Cl][Pt][Cl]` [cisplatin, cis-diamminedichloroplatinum], the cell growth (SKBR3 cells [1]; 1.0 μg of cisplatin alone) is reported as 65 % of control, the “toxicity to the cells” value (SKBR3 cells [1]; 3.0 μg of cisplatin alone) is reported as “highly toxic” and the “colony formation in soft agar” value (SKBR3 cells [2]) is reported as “did not inhibit colony formation”.

For `N.N.O=C([O-])C1(C(=O)[O-])CCC1.[Pt+2]` [carboplatin, cis-diammine-1,1-cyclobutane dicarboxylate platinum], the cell proliferation (SKBR3 cells [1]; 16 μg of carboplatin alone) was 63 % of control and the “synergistic response of the drug combined with TAb 250” value (SKBR3 cells [1]; MTT assay, carboplatin 16 μg, melphalan 20 μg) was “synergistic effects”.
